# Patent publication US20240142467A1, “Use of Biomarkers in the Treatment of Fibrotic Conditions with a PDE4B-inhibitor” (Boehringer Ingelheim International GmbH, priority 2022, published 2024)
# Where two headings read alike, the source gives them in different places.
# Assays:
# [1] = test system: patients with idiopathic pulmonary fibrosis; test: Phase 2 trial NCT04419506: change from baseline in FVC at 12 weeks; format: in vivo, human; conditions: for lung function (FVC) compared to placebo: non-AF-background and AF-background groups; for lung function (FVC) compared to placebo / mean change in FVC from baseline to Week 12 / median change in FVC: 18 mg twice daily; for probability that the compound is superior to placebo: Bayesian borrowing analysis; for median change in FVC / median difference in FVC change vs placebo: Bayesian borrowing
# Source text: Patients with a usual interstitial pneumonia (UIP) or probable UIP pattern on high-resolution computed tomography consistent with idiopathic pulmonary fibrosis, confirmed by central review, were eligible (Raghu et al, AM j Respir Crit Care Med 2019; 200:1089-1092). Patients also had forced FVC ≥45% predicted, and diffusing capacity of the lungs for carbon monoxide (DLco) corrected for hemoglobin 25-<80% predicted. Patients were permitted to continue antifibrotic therapy (nintedanib or pirfenidone) if they had been receiving a stable dose for at least 8 weeks prior to screening. Patients with airways obstruction, recent respiratory tract infection, or a history of suicidal behavior in the past 2 years, were excluded.
# The primary endpoint—change from baseline in FVC at Week 12—was evaluated separately in patients without and with background antifibrotics at baseline, and included all data collected while on treatment. The primary analysis was based on a Bayesian borrowing approach in order to incorporate historical data for the placebo arms within the groups treated without or with background antifibrotics via meta-analytic predictive priors that were made robust against prior-data conflicts (Schmidli et al, Biometrics 2014 70: 1023-1032). A vaguely informative prior was used for the arms using the PDE4 inhibitor of formula A′ (Compound of formula A′ in the following). The primary endpoint analysis was conducted in a two-step procedure. In the first step, the data from the current trial were analyzed with a restricted maximum likelihood-based approach using a mixed model with repeated measurements (MMRM). The analysis included the fixed, categorical effect of treatment at each visit, and the fixed, continuous effects of baseline FVC at each visit. Visit was treated as the repeated measure, with an unstructured covariance structure used to model the within-patient measurements. Based on this model, the adjusted mean changes from baseline in FVC at 12 weeks (and the related standard error) were calculated for the Compound of formula A′ and placebo arms within the patient groups without and with background antifibrotics. In the second step, the adjusted means in the placebo arms were combined with the meta-analytic predictive priors derived based on the clinical trials in the nintedanib clinical development program in idiopathic pulmonary fibrosis. In order to evaluate the treatment effects in each group, the posterior distribution for the treatment difference of the compound of formula A′ versus placebo with respect to the primary endpoint was used. The median of the posterior distribution for the treatment difference (and 95% credible intervals) was calculated as the primary analysis, and posterior probabilities that the treatment difference was higher than different boundaries were reported.
# Missing data for the primary analysis (continuous endpoint) were not imputed. The MMRM analysis allows for missing data, assuming they are missing at random. Sensitivity analyses were conducted to investigate the potential effect of missing data as well as early discontinuation via a treatment policy strategy, and a pooled analysis combining all patients irrespective of background treatment with antifibrotics.
# As this was an exploratory trial, no confirmatory testing and adjustment for multiplicity was planned. The sample size was chosen based on the evaluations of posterior probabilities for the change from baseline in FVC at Week 12, assuming a standard deviation of 200 mL and treatment differences of 70 mL and 20 mL in the patients treated without or with background antifibrotics, respectively.
# [2] = test system: IPF-rc-stimulated primary human small airway epithelial cells (SAEC); test: Biomarker release of IPF-rc-stimulated small airway epithelial cells (ELISA of supernatants); format: cell-based; conditions: for inhibition at 10 µM / IC50: Homo sapiens; for inhibition at 10 µM: SAEC, highest concentration 10 μM; for IC50: SAEC from 5 donors, 30 min pre-stimulation, supernatants 72 hrs after stimulation
# Experimental: Small airway epithelial cells of primary human origin at passage 4 were seeded in PneumaCult-Ex Plus complete medium onto rat tail collagen type I (30 μg/mL in PBS) coated 24-well plates.
# After incubation for 24 hrs at 37° C. and 5% CO2 cells were pre-stimulated with the PDE4-inhibitor of formula A′ for 30 min in different concentrations in PneumaCult-Ex Plus starving medium.
# Afterwards an IPF-relevant cytokine cocktail (Schruf E, Schroeder V, Le H Q, Schönberger T, Raedel D, Stewart E L, Fundel-Clemens K, Bluhmki T, Weigle S, Schuler M, Thomas M J, Heilker R, Webster M J, Dass M, Frick M, Stierstorfer B, Quast K, Garnett J P. Recapitulating idiopathic pulmonary fibrosis related alveolar epithelial dysfunction in a human iPSC-derived air-liquid interface model. FASEB J. 2020 June; 34(6):7825-7846) was added to induce fibrotic changes. 72 hrs after stimulation supernatants were collected and analyzed using R&D DuoSet ELISAs following the manufacturers protocol.
# To determine the inhibitory potency of the PDE4-inhibitor of formula A′ on biomarker release of IPF-rc-stimulated primary human small airway epithelial cells, the supernatants of the cell culture from 5 different donors were analyzed.
# [3] = with background antifibrotics, Week 12
# [4] = without background antifibrotics, Week 12
smiles,measurement,setting,value
[O-][S@+]1CCc2nc(N3CCC(c4ncc(Cl)cn4)CC3)nc(NC3(CO)CCC3)c21 [Compound of formula A′],lung function (FVC) compared to placebo,[1],stabilized lung function
same,lung function (FVC) compared to placebo,[1]; listed as PDE4-inhibitor of formula A′,significantly slowed decrease in lung function
same,adjusted mean change from baseline in FVC after 12 weeks,"[1]; pooled group with and without background antifibrotics, MMRM",+4.6 ml
same,overall treatment effect on FVC (difference vs placebo),"[1]; pooled group with and without background antifibrotics, MMRM, Week 12",88.4 mL
same,probability that the compound is superior to placebo,[1]; with background antifibrotics,98.6%
same,mean change in FVC from baseline to Week 12,"[1]; with background antifibrotics, MMRM",+2.7 mL
same,difference in mean FVC change vs placebo,"[1]; with background antifibrotics, MMRM, Week 12",80.4 mL
same,median change in FVC,[1]; [3],+2.7 mL
same,median difference in FVC change vs placebo,[1]; [3],62.4 mL
same,probability that the compound is superior to placebo,[1]; without background antifibrotics,99.8%
same,mean change in FVC from baseline to Week 12,"[1]; without background antifibrotics, MMRM",+6.1 mL
same,difference in mean FVC change vs placebo,"[1]; without background antifibrotics, MMRM, Week 12",101.7 mL
same,median change in FVC,[1]; [4],+5.7 mL
same,median difference in FVC change vs placebo,[1]; [4],88.4 mL
same,inhibition at 10 µM,[2]; read-out: maximal inhibition of CTGF release,75%
same,inhibition at 10 µM,[2]; read-out: maximal inhibition of MMP7 release,63%
same,inhibition at 10 µM,[2]; read-out: maximal inhibition of OPN release,67%
same,inhibition at 10 µM,[2]; read-out: maximal inhibition of sICAM release,39%
same,IC50,[2]; read-out: IC50 of IPF-rc-induced release of CTGF,~370 nM
same,IC50,[2]; read-out: IC50 of IPF-rc-induced release of MMP7,~4400 nM
same,IC50,[2]; read-out: IC50 of IPF-rc-induced release of OPN,~1100 nM
same,IC50,[2]; read-out: IC50 of IPF-rc-induced release of sICAM,~537 nM
same,inhibition of the release of PAI1 (plasminogen activator inhibitor 1),[2]; IPF-rc-stimulated SAEC,concentration dependent manner
